# Reference: patent EP1536235A2, “Method for detecting environmental pollution using 14-3-3 proteins as biomarkers” (MÜLLER, Werner E. G., priority 1998, dated 1999)
# What was measured:
# 14-3-3 [1] = test: Northern blotting of 14-3-3 mRNA after exposure of the sponge; assay type: in vivo, G. cydonium; conditions: PCB 118 2 µg/g, 17 beta-Östradiol 20 ng/g, alone or in combination; 17 beta-Östradiol = 100% reference value; incubation 3 or 6 days; not detectable without agents
# Source text: (§1) Für eine Quantifizierung der mRNA für 14-3-3 mittels Northern-Blotting Verfahren werden Gensonden hergestellt, die von den konservierten Anfangsbereichen [aa45-aa57] bis zu den konservierten Endbereichen [aa214-aa234] des 14-3-3 Proteins reichen (ABB. 2). Als Methodik wird die PCR-Klonierung eingesetzt. Die erhaltenen APPROX 500 bp langen Sonden eignen sich erfahrungsgemäß gut für Northern-Blotting-Untersuchungen.
# (§2) Die quantitative Auswertung der Signale kann zum Beispiel mit Hilfe des Chemilumineszenz-Verfahrens (Stanley und Kricka, Bioluminescence and chemiluminescence: current status. John Wiley & Sons, New York, 1990) in Verbindung mit einem Phospholmager (z. B. GS-525 Molecular Imager der Firma Bio-Rad) erfolgen; Dinatrium 2-Chlor-5-(4-methoxyspiro 1,2-dioxetane-3,2'-(5'-chlor)-tricyclo[3.3.1.13,7]decan-4-yl)phenyl-phosphat (CDP) wird hierfür als Substrat angewandt.
# Durchfiihrung: • (a) Exposition von G. cydonium gegenüber PCB 118: 1 ml PCB 118 (0.1 mg/ml in Kornöl) wurde in […] Schwammgewebe injiziert. Die Proben wurden in Seewasser für bis zu 6 Tage in 20 1 Aquarien bei 17°C unter kontinuierlicher Belüftung inkubiert; das Wasser wurde einmal am Tag 2 gewechselt. Aliquote Teile des Gewebes (ungefähr je 200 mg) wurden zum Zeitpunkt Null oder nach einer Inkubationszeit von 0.5, 1, 3, 5 und 6 Tagen entnommen. […]
# 14-3-3 Protein = test: ELISA quantification of 14-3-3 protein in liver after i.p. injection; conditions: liver after 5 days, Kontrolle 0,12
# Method: Vorgegangen wurde hierbei nach den Instruktionen des Herstellers. Überschüssige Maleimidgruppen auf den Platten wurden durch einstündige Inkubation der Platten mit einer Cysteinlösung (10 µg/ml) blockiert.
# Die Durchführung erfolgt in folgenden Schritten: • Variante 1 • 1a. Inkubation der Streptavidin-beschichteten Mikrotiterplatten mit dem Biotingekoppelten Peptid. • 2a. Zugabe von 100 µl Extrakt aus den untersuchten Tiergeweben in die Wells nach Bindung des Peptids über Biotin und Streptavidin. Oder: • 1a. Inkubation der Extrakte aus den untersuchten Tiergeweben mit dem Biotingekoppelten Peptid. • 2a. Zugabe von 100 µl der Inkubationsmischungen nach Bindung des Biotin-Peptids an 14-3-3 in die Wells. • 3. Waschen. • 4. Quantifizierung der Peptid-14-3-3 Komplexe über markierte Antikörper. Als Markierung kann zum Beispiel die alkalische Phosphatase verwendet werden; als Substrat zum Nachweis dient dann 5-Brom-4-Chlor-3-Indolylphosphat/Nitroblau-Tetrazolium. • 5. Detektion mittels eines ELISA-Platten-Readers. • Variante 2 • 1. Zugabe von 100 µl Extrakt in die Wells der Mikrotiterplatten mit dem gekoppelten Peptid und Inkubation. • 2. Waschen. • 3. Quantifizierung der Peptid-14-3-3 Komplexe über markierte Antikörper (siehe Variante 1). • 4. Detektion mittels eines ELISA-Platten-Readers.
# Die in Tabelle 1 angegebenen Mengen an PCB 77, PCB 118 und PCB 153 wurden nach Auflösung in Kornöl in Klieschen (Limanda limanda) injiziert. […] Nach den angegebenen Zeiträumen wurde den Tieren die Leber entnommen und sofort eingefroren. Die Bestimmung des Gehalts an 14-3-3 in den Lebern erfolgte nach Homogenisation durch Mörsern der gefrorenen Gewebeproben in dem dreifachen Volumen an Phosphat-Puffer mit 1 mM EDTA und 1 mM Phenylmethylsulfonylfluorid.
# 14-3-3 [2] = test: Keeping experiments with PCB 118: 14-3-3 expression by Northern and Western blotting; assay type: in vivo, Geodia cydonium; conditions: 2 µg PCB 118/g wet weight, 0,5 to 6 days; Northern (mRNA) and Western blotting (protein)
# Source text: as §1, §2
# Der Nachweis der Expression von 14-3-3 auf Protein-Ebene erfolgt mittels Antikörper. Entweder können kommerzielle (z. B. von der Firma Calbiochem/Oncogene) oder gegen das rekombinante Invertebraten-Protein 14-3-3 aus Geodia cydonium gezogene Antikörper eingesetzt werden. Zur Quantifizierung der 14-3-3 Proteine werden Western-Blots mit Extrakten des Bioindikators hergestellt. Die Signale können wieder unter Anwendung des Chemilumineszenz-Verfahrens quantifiziert werden. Die Gewebeextrakte können z. […]
# [3] = i.p. 0.03 mg PCB pro kg Limanda limanda
Compound,Niveau der mRNA von 14-3-3 (14-3-3 [1]),14-3-3 Protein (OD-Einheit) (14-3-3 Protein; [3]),other results
C[C@]12CC[C@@H]3c4ccc(O)cc4CC[C@H]3[C@@H]1CC[C@@H]2O [17 beta-Östradiol],100%,,
[Cd] [Cadmium],,,"14-3-3 Protein (OD-Einheit) (14-3-3 Protein; Cadmium 0,01 mg/kg i.p.): 0,30 OD-Einheit; 14-3-3 Protein (OD-Einheit) (14-3-3 Protein; Cadmium 0,1 mg/kg i.p.): 0,98 OD-Einheit; 14-3-3 Protein (OD-Einheit) (14-3-3 Protein; Cadmium 0,03 mg/kg i.p.): 0,75 OD-Einheit"
"Clc1ccc(-c2ccc(Cl)c(Cl)c2)cc1Cl [PCB77, PCB 77]",,"0,97 OD-Einheit",
"Clc1cc(Cl)c(-c2cc(Cl)c(Cl)cc2Cl)cc1Cl [PCB153, PCB 153]",,"0,81 OD-Einheit",
Clc1ccc(-c2cc(Cl)c(Cl)cc2Cl)cc1Cl [PCB 118],30%,"0,74 OD-Einheit",Expression des 14-3-3-Gens (14-3-3 [2]): von nicht nachweisbar auf sehr hohe Werte induziert
